Measured values reported in ChEMBL document CHEMBL6083202, “The isolation of sclerotinin A as an anti-malarial compound by utilization of a global secondary metabolism regulator, laeA gene” (Bioorg Med Chem Lett, 2024).
In brackets after ≈: the same amount, converted by molar mass. Activity calls are given as the source filed them. The calls are words filed in the database; no cut-off is given here.

Key:
[1] = Selectivity index, ratio of IC50 for human HepG2 cells to IC50 for chloroquine-sensitive Plasmodium falciparum FCR3; assay type: toxicity, cell-based; details: read-out: Ratio IC50
[2] = Selectivity index, ratio of IC50 for human MRC5 cells to IC50 for chloroquine-sensitive Plasmodium falciparum FCR3; assay type: toxicity, cell-based; details: read-out: Ratio IC50
[3] = Selectivity index, ratio of IC50 for human HeLa cells to IC50 for chloroquine-sensitive Plasmodium falciparum FCR3; assay type: toxicity, cell-based; details: read-out: Ratio IC50
[4] = Cytotoxicity against human A549 cells; assay type: toxicity, cell-based
[5] = Selectivity index, ratio of IC50 for human A549 cells to IC50 for chloroquine-sensitive Plasmodium falciparum FCR3; assay type: toxicity, cell-based; details: read-out: Ratio IC50
[6] = Cytotoxicity against human MRC5 cells; assay type: toxicity, cell-based
[7] = Cytotoxicity against human HepG2 cells; assay type: toxicity, cell-based
[8] = Selectivity index, ratio of IC50 for human A549 cells to IC50 for chloroquine-resistant Plasmodium falciparum K1; assay type: toxicity, cell-based; details: read-out: Ratio IC50
[9] = Selectivity index, ratio of IC50 for human HeLa cells to IC50 for chloroquine-resistant Plasmodium falciparum K1; assay type: toxicity, cell-based; details: read-out: Ratio IC50
[10] = Selectivity index, ratio of IC50 for human HepG2 cells to IC50 for chloroquine-resistant Plasmodium falciparum K1; assay type: toxicity, cell-based; details: read-out: Ratio IC50
[11] = Cytotoxicity against human HeLa cells; assay type: toxicity, cell-based
[12] = test system: Plasmodium falciparum; experiment: Antimalarial activity against chloroquine-sensitive Plasmodium falciparum FCR3; assay type: functional, organism-based
[13] = test system: Saccharomyces cerevisiae; experiment: Antifungal activity against multidrug sensitive Saccharomyces cerevisiae 12gene mutant 0HSR-iERG6 at 10 ug; assay type: functional, organism-based; details: dose 10.0 µg
[14] = Selectivity index, ratio of IC50 for human MRC5 cells to IC50 for chloroquine-resistant Plasmodium falciparum K1; assay type: toxicity, cell-based; details: read-out: Ratio IC50
[15] = test system: Plasmodium falciparum; experiment: Antimalarial activity against chloroquine-resistant Plasmodium falciparum K1; assay type: functional, organism-based

## Cc1c(O)c(C)c2c(c1O)C(=O)OC(C)(O)[C@H]2C (stereo not given in full)
[1]
  selectivity ratio: 6.31
[2]
  selectivity ratio: 2
[3]
  selectivity ratio: 15.9
[4]
  IC50: 15.9 µg/mL (≈ 63 µM)
[5]
  selectivity ratio: 25.6
[6]
  IC50: 1.2 µg/mL (≈ 4.76 µM)
[7]
  IC50: 3.91 µg/mL (≈ 15.5 µM)
[8]
  selectivity ratio: 18.3
[9]
  selectivity ratio: 11.4
[10]
  selectivity ratio: 4.49
[11]
  IC50: 9.88 µg/mL (≈ 39.2 µM)
[12]
  IC50: 0.62 µg/mL (≈ 2.46 µM)
[13]
  Activity: inactive
[14]
  selectivity ratio: 1.4
[15]
  IC50: 0.87 µg/mL (≈ 3.45 µM)
